Patent publication US20210113563A1, “4-(4-CYANO-2-THIOARYL)DIHYDROPYRIMIDINONES FOR TREATING CHRONIC WOUNDS” (pH Pharma Co., Ltd., priority 2015, published 2021)
“Also recorded” adds a separate entry of the source.

How the values were obtained:
[1] = molecular target: T1, human neutrophil elastase (HNE) (Homo sapiens, UniProt P08246); details: read-out: Inhibition of human neutrophil elastase (HNE) IC50; cited from earlier work
T1 sequence (P08246 30-267): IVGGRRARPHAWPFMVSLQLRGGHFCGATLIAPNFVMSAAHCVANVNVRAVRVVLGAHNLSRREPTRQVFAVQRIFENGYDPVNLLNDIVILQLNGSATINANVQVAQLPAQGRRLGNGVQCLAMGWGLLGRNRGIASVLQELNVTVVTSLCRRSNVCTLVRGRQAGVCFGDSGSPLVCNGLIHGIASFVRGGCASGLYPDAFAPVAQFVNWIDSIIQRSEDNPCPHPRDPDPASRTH

[2] = test system: wounds of Tight Skin mice (TSK); test: Reepithelialization and visual healing of full thickness skin excision wounds in Tight Skin mice (TSK); assay type: in vivo; details: TSK mouse; for Wound closure (reepithelialization) in % of initial epidermal gap: d 12, CK16 staining
Excerpt: OBJECTIVE: To evaluate wound closure/reepithelialization promoting effects of the Neutrophil Elastase Inhibitor Example 3 in a fibrosis-related model of delayed wound healing (Tight Skin Mouse, TSK). METHODS: Animals: mice, male+female, strain: B6.Cg-FBN1<Tsk>−/− (wt) and +/−(het), age: 5 weeks upon delivery, breeder: Bayer. Food (ssniff R/M-H) and water was provided ad libitum. Experimental procedure: Mice were randomized at day 0. At day 0, 3 full thickness excision wounds were induced. For that, animals were anesthetized (Rompun/Ketavet/NaCl 0.9% [1+3+16]) in […]. The lower back was shaved, then moistened with tap water. Pilca depilation cream was applied and left for 3-5 minutes to act, then wiped off. To prevent the animals from cooling down during the procedure, they were placed on warming mats. Skin was excised using 6 mm diameter round scalpels. After wake up mice were distributed to individual cages. Treatment: Day 0 to 11 twice daily per os. Example 3 was dissolved in PEG400 as a vehicle. Administration was twice daily (bid). Skin samples were harvested into formalin (3.7% in PBS) at day 12 after scarifying with isoflurane/O2/N2O anesthesia followed by dislocation of the cervical spine. After soaking in formalin (24-72 h), the samples were transferred to paraffin and then cut. Staining of cytokeratin 16 was performed using rabbit polyclonal anti-Keratin 16 (CK16, KRT16, ABIN265495), 1 mg/ml anti-CK16 antibody by IHC-Peroxidase (in a 1:100 dilution) EnVision+ System-HRP (DAB), for Rabbit Primary Antibodies (Dako #K4011).
Effects were most prominent on d7 and d9. All dosages were similarly effective, i.e. a clear dose response ratio remained to be established. […] Based on the size of the induced wounds, 6000 μm was set as 100%. The epidermal gap, i.e. the distance between the epidermal edges was measured by microscopic histometry. The width of the gap was subtracted from the initial wound. The delta represented the reepithelialized part of the wound and was expressed as reepithelialization in % of the initial wound diameter, i.e. 100% equaled complete reepithelialization or full wound closure.

[3] = test system: HaCaT cells; test: HaCaT modified scratch assay (Oris Cell Migration Assay) with human neutrophil elastase; assay type: cell-based; details: 7.5 μg/mL hNE
Method: The modified scratch-wound assay is a simple, reproducible assay commonly used to measure basic cell migration parameters such as speed, persistence, and polarity. Cells are grown to confluence and a thin “wound” is introduced by scratching with a pipette tip. In the modified version, a plastic plug is placed into the tissue well while the cells adhere and grow to confluence. When the plug is pulled, a circular “wound” emerges. Cells at the wound edge polarise and migrate into the wound space. […] At the given time points, the size of the free area is measured.
Method: Oris Cell Migration Assay (collagen I coated) with HaCaT cells. Establishing a dose response curve for test compounds with and without addition of 7.5 μg/mL human neutrophil elastase (hNE).
For harvesting the cells, the medium was first extracted from the cell culture flask, then washed with PBS and 10-20 ml aspirated again. 2.5 ml (75 cm^2 flask bottom area) or 5 ml (162 cm^2) TrypLE Express were added, as well as the same amount of PBS followed by incubating the cells for 10 minutes (37° C.). The cells were transferred into a tube, centrifuged (250×g, 10 min, RT=room temperature) and resuspended in medium.
The following cell concentration was used: 7×10^5 cells/ml=7×10^4 cells/well/100 μl.
In this time, the cells adhered and grew to confluence. The compounds were then added to achieve the below indicated concentrations. The plugs were then removed.
Once all components were pipetted to the cells, one photo per well was taken including the “wound” (0 h). A Zeiss AxioObserver (5× lens, bright field, 5.5 V light exposure 2.2 ms) and the AxioVision software was used. […] 16 h later pictures were taken again.
The relative healing was calculated, i.e. the percentage of closed wound area compared to baseline at 0 h.
Wound healing %=100−(‘wound surface after x hours’*100/‘wound surface after 0 hours’)
From the calculated relative wound healing a graphic in GrapPad prism was created, and EC50 values were determined.
For evaluation of pictures the software ImageJ was used. For this, the ZVI files were exported within the AxioVision software as jpg. This jpg files were then opened by ImageJ. Using the Tools panel (Mode: 4-connected/Tolerance=5-20) the to be measured surface area was marked.

| Compound | IC50 [1] | Wound closure (reepithelialization) in % of initial epidermal gap ([2]; 2.5 mg/kg BW twice daily p.o.) | Wound closure (reepithelialization) in % of initial epidermal gap ([2]; 5 mg/kg BW twice daily p.o.) | Wound closure (reepithelialization) in % of initial epidermal gap ([2]; 10 mg/kg BW twice daily p.o.) | Wound closure (reepithelialization) in % of initial epidermal gap ([2]; 20 mg/kg BW twice daily p.o.) | Visual wound healing, wound area reduction over time (in words) ([2]; 2.5-20 mg/kg bid p.o., FIG. 1) | Reepithelialization vs. vehicle controls, histological (in words) ([2]; d 12) | Correction of the reepithelialization-impairing effect of NE (in words) [3] | IC50 ([3]; Homo sapiens, 16 h) | Bottom ([3]; curve fit, 16 h) | Span ([3]; curve fit, 16 h) | Top ([3]; curve fit, 16 h) |
| --- | --- | --- | --- | --- | --- | --- | --- | --- | --- | --- | --- | --- |
| CCS(=O)(=O)c1cc(C#N)ccc1[C@@H]1C(C#N)=C(C)N(c2cccc(C(F)(F)F)c2)C(=O)N1C [Example 6, (4 S)-4-[4-Cyano-2-(ethylsulfonyl)phenyl]-3,6-dimethyl-2-oxo-1-[3-(trifluoromethyl)phenyl]-1,2,3,4-tetrahydropyrimidine-5-carbonitrile] | < 0.3 nM | – | – | – | – | – | – | – | – | – | – | – |
| CC1=C(C#N)[C@@H](c2ccc(C#N)cc2S(C)(=O)=O)N(S(C)(=O)=O)C(=O)N1c1cccc(C(F)(F)F)c1 [Example 3, (4 S)-4-[4-Cyano-2-(methylsulfonyl)phenyl]-6-methyl-3-(methylsulfonyl)-2-oxo-1-[3-(trifluoromethyl)phenyl]-1,2,3,4-tetrahydropyrimidine-5-carbonitrile] | < 0.3 nM | 95.8% | 93.9% | 99.5% | 100% | significant visual wound healing improving effects; also recorded: induced accelerated wound healing | reepithelialization was significantly further advanced | almost entirely, potently and concentration-dependently be corrected; also recorded: potently and effectively able to block detrimental effects of NE | 57.4 nM | 90.41 | −47.65 | 42.75 |
| CC1=C(C#N)[C@@H](c2ccc(C#N)cc2S(C)(=O)=O)N(S(=O)(=O)C2CC2)C(=O)N1c1cccc(C(F)(F)F)c1 [Example 4, (4 S)-4-[4-Cyano-2-(methylsulfonyl)phenyl]-6-methyl-3-(cyclopropylsulfonyl)-2-oxo-1-[3-(trifluoromethyl)phenyl]-1,2,3,4-tetrahydropyrimidine-5-carbonitrile] | < 0.3 nM | – | – | – | – | – | – | – | – | – | – | – |
